From patent publication US9987381B2, “Radioligands for imaging the LPA-1 receptor” (BRISTOL-MYERS SQUIBB COMPANY, priority 2013, dated 2018)
Like-named read-outs stand apart in the source and are kept apart here.

Key:
Type in all cases: in vivo, rhesus monkeys
[1] = target: T1, LPA1 (Macaca mulatta, UniProt H9EN64); assay: PET saturation study of [11C]-BMT-136088 in lung (bolus plus infusion, VT by MA1/EA); conditions: for ED50: rhesus monkey
T1 construct: from tissue; host or cells: lung of living anaesthetised rhesus monkeys (in vivo PET)
Procedure: (§1) This study was divided in two parts: First, the test-retest variability of [^11C]-BMT-136088 binding in a within-day protocol. Second, a saturation study was performed to evaluate the fraction of specific and non-specific binding for the radiotracer [^11C]-BMT-136088, the in vivo equilibrium dissociation constant KD, and the radiopharmaceutical tracer-dose limit (to achieve less than 5% self-occupancy).
In the saturation study, each animal was scanned twice a day, with varying mass of [^11C]-BMT-136088, from tracer dose to near-saturating doses. The interval between the two scans was the same as in the blocking study and test-retest study. For the first scans, tracer doses were used in 3 out of 4 study days. On the fourth day, the first scan dose was not performed at tracer dose, but the mass of the first dose scan was substantially lower than the second dose to minimize the influence of the first injection on the second scan data.
(§2) Two rhesus monkeys were included in the blocking, test-retest, and saturation studies: one male, one female; age=4.8±0.8 y; weight=8.6±0.4 kg. Studies in the same animal were separated by at least 2 weeks to allow the animal to recover from anesthesia and other effects. Four rhesus monkeys (2M, 2F) were included in the dosimetry study.
(§3) Following a low-dose, CT scan used for attenuation correction and to delineate the lung regions of interest, [^11C]-BMT-136088 was injected using a computer-control pump with a bolus plus infusion protocol, with an initial 1-min bolus and a ˜119-min infusion. The volume injected during the initial bolus represented 100 min (Kbol) worth of infusion in the blocking and test-retest study, and 300 min worth of infusion in the saturation study.
(§4) Beginning at the start of each injection, a 120-minute time-of-flight list-mode acquisition on the mCT PET/CT scanner (Siemens Medical Solutions USA, Inc.) was performed. Dynamic PET scan data were reconstructed with corrections for point-spread function, attenuation, normalization, scatter, randoms, and dead time using a 3D OP-OSEM TOF algorithm. PET images were reconstructed into 33 frames, with the following frame timing: 6×30 sec; 3×1 min; 2×2 min; 22×5 min. Each frame contained 400×400×111 (x,y,z) voxels (2.04×2.04×2.0 mm).
The lungs were semi-automatically delineated using CT images collected before each PET scan. • First, the lungs were segmented based on the CT image values in Hounsfield scale (−1000<HU<−200), using a region growing algorithm and seeds manually placed at the center of the lungs; • The trachea, and occasionally the air in the stomach were manually excluded from the segmentation results; • The segmented lung ROIs were divided into right and left ROIs by manually selecting a plane separating the left and right side of the animal (animals were lying in supine position, but this plane was not always perfectly vertical); • The right and left ROIs were further divided into three smaller ROIs: lower lung, mid lung, and upper lung. The upper lung was defined as the part of the lung above the heart; the lower lung was defined as the part of the lung that is less than 5 slices (˜1 cm) above the topmost axial slice where the top of the liver can be seen.
The lung time-activity curves (TACs) were computed for each ROI and expressed in kBq/cm^3. The lung ROI contains lung tissue, blood, and air. In particular, the lung density may change from scan to scan due to (slight) changes in animal positioning, which can change the left-right location of the heart and change which lung tends to be compressed by the heart. Therefore an estimate of the density of lung ROIs was estimated to convert the TAC units from kBq/cm^3 to kBq/g, as follows. The CT images were converted from Hounsfield scale to linear attenuation values (in cm^−1) for 511 KeV photons. These attenuation values were assumed to be linearly proportional to mass for soft tissue (e.g., lung and heart) and the heart density was assumed to be 1 g/cm^3. […]

[2] = Plasma concentration and plasma free fraction in saturation study
Procedure: as §2
Blood samples were also collected for the last three saturation studies at −5, 60, 90 and 120 minutes after the start of [^11C]-BMT-136088 bolus plus infusion with non-tracer doses (n=4). Red cells were precipitated at 3200 rpm for 10 minutes at 10° C.; the plasma was divided into two aliquots and frozen at −80° C. until shipped for analysis. The goal of these measurements was to compare the plasma concentrations estimated from measurements of [^11C]-BMT-136088 and its metabolism using gamma counters and HPLC systems, to that from measurement of unlabeled BMT-136088 using mass spectrometry.

[3] = target: T1, LPA1; assay: PET test-retest study of [11C]-BMT-136088 binding
Procedure: as §1
In the test-retest study, each animal was scanned twice per day, with the same interval between the two scans as in the blocking study, to measure the variability of [^11C]-BMT-136088 binding parameter and assess if there was a systematic difference in binding parameters between the two scan times (for example due to the prolonged anesthesia). The study was performed in the same animals as the blocking study.
as §2, §3
as §4, with “mm). […]” for “mm).”

[4] = target: T1, LPA1; assay: PET blocking study of [11C]-BMT-136088 with BMS-986020; conditions: from BPND 1.1±0.1
Procedure: For the blocking data reanalyzed here, each animal was scanned twice during the administration of [^11C]-BMT-136088, using a bolus plus infusion (B+I) protocol: at baseline first, then during the administration of the blocking drug, BMS-986020, also using a bolus plus infusion protocol.
In the blocking study, BMS-986020 was administered i.v. using a 10-min bolus ([…]) followed by a ˜230 min infusion (0.25 mg/kg/hr) for a total dose of 1.224±0.015 mg/kg.
as §2, §3, §4
Blood samples for PK for each blockade study session were obtained at −1, 60, 90, 120, 150, 210, 240 and 270 minutes after the start of BMS-986020 bolus plus infusion. Red cells were precipitated at 3200 rpm for 10 minutes at 10° C.; the plasma was divided into two aliquots and frozen at −80° C. until shipped for analysis. […]

T1 sequence (H9EN64 1-364): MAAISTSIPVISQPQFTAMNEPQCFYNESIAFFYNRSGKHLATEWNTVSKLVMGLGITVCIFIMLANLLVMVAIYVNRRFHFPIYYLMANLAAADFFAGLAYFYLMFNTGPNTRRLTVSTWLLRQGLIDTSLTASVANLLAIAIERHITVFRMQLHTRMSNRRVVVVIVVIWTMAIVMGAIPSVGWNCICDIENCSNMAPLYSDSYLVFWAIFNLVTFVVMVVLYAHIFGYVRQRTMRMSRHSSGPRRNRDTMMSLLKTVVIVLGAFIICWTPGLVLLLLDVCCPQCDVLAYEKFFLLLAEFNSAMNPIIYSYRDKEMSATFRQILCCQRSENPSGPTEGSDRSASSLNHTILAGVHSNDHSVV

For `Cc1noc(-c2ccc(-c3ccc(C4(C(=O)O)CC4)cc3)cc2)c1NC(=O)O[C@H](C)c1cccc([11CH3])c1` [[^11C]-BMT-136088, [11C]-(R)-1-(4′-(3-Methyl-4-(((1-(m-tolyl)ethoxy)carbonyl)amino)isoxazol-5-yl)-[1,1′-biphenyl]-4-yl)cyclopropanecarboxylic acid], the IC50 ([1]; MA1 and all corrections, VT versus plasma concentration) was 28 ± 12 nM, the “binding potential BPND” value ([1]; MA1 with all corrections, lung) was 1.1±0.1 and the “fraction of tracer in lung (excluding blood) specifically bound to LPA1 sites” value ([1]; at equilibrium) was “about 50%”. The Kd ([1]; from plasma IC50 and plasma free fraction, read-out: in vivo KD) was 0.055 nM, the ED50 ([1]; MA1 with all corrections, read-out: ED50) was 0.036 ± 0.015 mg/kg and the ED50 ([1]; all ED50 estimates, range over analysis methods, read-out: ED50 estimates (all methods)) was 0.036 to 0.056 mg/kg. For the same compound, the tracer dose limit ([1]; to occupy less than 5% of LPA1 sites, based on ED50) was 0.0019 mg/kg, the fraction unbound ([2]; both sexes, rhesus monkey, plasma, intravenous, measured during the saturation studies) was 0.002 and the “slope of plasma concentration vs injected mass” value ([2]; saturation study, linear increase) was 0.92 nM/(μg/kg). It also gave a test-retest variability ([3]; EA, density and blood activity corrections, left ROIs mid and upper lung) of −2±10%, a test-retest variability ([3]; EA, density and blood activity corrections, right ROIs mid and upper lung) of −1±11% and a test-retest variability ([3]; MA1, animal A2, left ROIs mid and upper lung) of −5%. For the same compound, the test-retest variability ([3]; MA1, animal A2, right ROIs mid and upper lung) was −8% and the “maximum expected blockade effect” value [4] was 52%.
